Entries after “also recorded” stand apart in the source; their conditions may differ. Where two headings read alike, the source gives them in different places.
Key:
[1] = Rivaroxaban plasma concentrations by LC-MS/MS in the patient; assay type: in vivo, human
Experimental: Rivaroxaban determination was performed using a fully validated LC-MS/MS method according to guidelines of the US Food and Drug Administration and the International Conference on Harmonization. The method was accurate and precise across the dynamic range of 0.5–1000 ng/ml. The LOQ was 0.5 ng/ml. The mean precision and accuracy, calculated from the QCs, were 10.2 and 112%, respectively.
A plasma sample of 40 μl was processed by protein precipitation extraction using acetonitrile (200 μL). Separation was performed on a C18 column (50 mm × 2.1 mm ID; 2.6 μm particle size) and under gradient conditions using formic acid 10 mM in water and formic acid 10 mM in acetonitrile. Detection was by tandem-MS in positive mode using a Qtrap API 6500 from AB sciex (Ontario, Canada) using rivaroxaban-d4 as internal standard (20 ng/ml).

[2] = Case report: laboratory testing at hospital admission under rivaroxaban; assay type: in vivo, human; conditions: 3 months on rivaroxaban 20 mg q.d., normal range 140–180 g/l
[3] = set-up: method as in Mueck et al., 2014; conditions: ref Mueck et al., 2014, cited from earlier work
[4] = set-up: method as in Moore et al., 2014; conditions: moderate renal impairment plus erythromycin vs normal renal function, rivaroxaban 10 mg alone; ref Moore et al., 2014; cited from earlier work
[5] = set-up: method as in Mueck et al., 2013; conditions: healthy volunteers, ref Mueck et al., 2013, cited from earlier work
[6] = set-up: method as in Grillo et al., 2012; conditions: PBPK simulation, concurrent renal impairment plus erythromycin, elderly; ref Grillo et al., 2012; cited from earlier work
Factor Xa = target: T1, Factor Xa (Homo sapiens, UniProt P00742); assay: Anti-Xa activity, chromogenic assay (DiXal kit) in patient plasma; assay type: in vivo; conditions: patient on 20 mg q.d.
T1 construct: purchased Hyphen Biomed, Neuville-Sur-Oise, France
Experimental: Anti-Xa activity was measured with a chromogenic assay using the DiXal® kit (Hyphen Biomed, Neuville-Sur-Oise, France) and a BCS XP instrument (Siemens, Marburg, Germany). This method has a limit of detection of 10 ng/ml. No information is given by the manufacturer regarding the limit of quantification (LOQ). However, previous studies have shown a LOQ of 20–30 ng/ml ([Douxfils et al., 2013]). The accuracy and precision calculated from the quality controls (QCs) were 107.0 and 8.8%, respectively, ([Asmis et al., 2012]). An excellent correlation between this method and liquid chromatography-tandem mass spectrometry (LC-MS/MS) has been shown (Spearman correlation coefficient of 0.96) ([Douxfils et al., 2013]).

Mdr1a/Mdr1b/Bcrp = test system: Mdr1a/Mdr1b/Bcrp; set-up: method as in Gong et al., 2013; conditions: 4 h after administration; ref Gong et al., 2013; cited from earlier work
CYP3A4/5 [7] = assay: CYP3A4/5 phenotyping with midazolam as probe; conditions: patient, 8 days after hospital admission, concomitant atorvastatin 40 mg q.d.
Experimental: Midazolam was used as a probe to measure the joint activity of CYP3A4/5 as previously described ([Bosilkovska et al., 2014]). Phenotyping was performed 8 days after hospital admission with concomitant treatment of insulin, enoxaparin 60 mg b.i.d., atorvastatin 40 mg q.d.

CYP3A4/5 [8] = conditions: ref Bosilkovska et al., 2014, cited from earlier work
[9] = set-up: method as in Lee et al., 2015; conditions: in vivo; ref Lee et al., 2015; cited from earlier work
CYP3A4/5 [10] = conditions: in vitro; ref Lee et al., 2015; cited from earlier work
P-gp = conditions: in vitro; ref Lee et al., 2015; cited from earlier work
[11] = with ketoconazole 200 mg q.d. vs rivaroxaban alone
[12] = with ketoconazole 400 mg q.d. vs rivaroxaban alone

T1 sequence (P00742 235-488 limits assumed): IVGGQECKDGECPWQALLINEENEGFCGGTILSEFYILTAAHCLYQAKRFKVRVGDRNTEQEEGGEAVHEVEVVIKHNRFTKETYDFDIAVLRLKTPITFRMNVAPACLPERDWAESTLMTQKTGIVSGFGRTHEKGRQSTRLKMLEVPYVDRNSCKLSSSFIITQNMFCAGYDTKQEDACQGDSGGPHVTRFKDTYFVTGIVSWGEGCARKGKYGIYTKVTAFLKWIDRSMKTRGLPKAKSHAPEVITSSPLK
T1 sequence (P00742 41-179 partner limits assumed): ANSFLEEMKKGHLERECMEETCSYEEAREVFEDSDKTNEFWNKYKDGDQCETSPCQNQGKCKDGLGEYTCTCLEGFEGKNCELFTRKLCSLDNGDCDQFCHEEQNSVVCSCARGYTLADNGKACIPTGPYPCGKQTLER

O=C(NC[C@H]1CN(c2ccc(N3CCOCC3=O)cc2)C(=O)O1)c1ccc(Cl)s1 [rivaroxaban]
Rivaroxaban plasma concentrations ([1]; 48 h after the last rivaroxaban dose, patient on 20 mg q.d., LC-MS/MS): 88.3 ng/mL
Rivaroxaban plasma concentrations ([1]; 96 h (4 days) after the last rivaroxaban dose, patient on 20 mg q.d., LC-MS/MS): 35.6 ng/mL
half-life ([1]; human, plasma, oral, 20 mg q.d. Patient, homozygous ABCB1 variant carrier, moderate acute renal failure, read-out: Estimated half-life): 24 to 30 h
concentration at 48 h ([1]; human, plasma, oral, 20 mg q.d., 48 h after the last rivaroxaban dose, patient on 20 mg q.d., LC-MS/MS): 88 ng/mL
concentration at 72 h ([1]; human, plasma, oral, 20 mg q.d., 72 h after the last rivaroxaban dose, patient on 20 mg q.d., LC-MS/MS): 70.5 ng/mL
concentration at 96 h ([1]; human, plasma, oral, 20 mg q.d., 96 h (4 days) after the last rivaroxaban dose, patient on 20 mg q.d., LC-MS/MS): 36 ng/mL
Estimated half-life relative to usually reported ([1]; patient vs usually reported half-life): 2–3 times
Hemoglobin level [2]: 70 g/L
half-life ([3]; old patients): 11 to 13 h
Oral bioavailability [3]: 80–100%
Part of the dose eliminated as unchanged drug in the urine [3]: more than one third; also recorded: About one third
Increase in rivaroxaban AUC [4]: approximately 99%
Increase in rivaroxaban Cmax [4]: ~64%
Increase in rivaroxaban AUC [5, 11]: 82%
Increase in rivaroxaban Cmax [5, 11]: 53%
Increase in rivaroxaban AUC [5, 12]: 158%
Increase in rivaroxaban Cmax [5, 12]: 72%
Increase in rivaroxaban exposure [6]: 2.5–3 fold
Anti-Xa activity (Factor Xa; 24 h after the last rivaroxaban dose): 231 ng/mL
Anti-Xa activity (Factor Xa; 48 h after the last rivaroxaban dose): 110 ng/mL
Anti-Xa activity (Factor Xa; 60 h after the last rivaroxaban dose): 81 ng/mL
Anti-Xa activity (Factor Xa; 72 h after the last rivaroxaban dose): 66 ng/mL
Anti-Xa activity (Factor Xa; 84 h after the last rivaroxaban dose): 66 ng/mL
Anti-Xa activity (Factor Xa; 96 h (4 days) after the last rivaroxaban dose): 34 ng/mL
Increase in plasma concentration, triple knockout vs wild type mice (Mdr1a/Mdr1b/Bcrp): 1.7 fold

Cc1ncc2n1-c1ccc(Cl)cc1C(c1ccccc1F)=NC2 [midazolam]
OH-midazolam/midazolam metabolic ratio (CYP3A4/5 [7]): 0.31
OH-midazolam/midazolam metabolic ratio (CYP3A4/5 [8]; healthy volunteers in the presence of a CYP inhibitor (voriconazole)): 0.22
OH-midazolam/midazolam metabolic ratio (CYP3A4/5 [8]; healthy volunteers without enzyme inhibitor/inducer): 0.50

CC(C)c1c(C(=O)Nc2ccccc2)c(-c2ccccc2)c(-c2ccc(F)cc2)n1CC[C@@H](O)C[C@@H](O)CC(=O)O [atorvastatin]
Impact on nifedipine pharmacokinetics [9]: no impact
Inhibition of CYP3A4/5 activity (CYP3A4/5 [10]): inhibited
Inhibition of P-gp activity (P-gp): not P-gp activity

From PMC5165251, “Rivaroxaban-Induced Hemorrhage Associated with ABCB1 Genetic Defect” (Frontiers in Pharmacology, 2016)
